Assay results reported in US10716795B2, “Steroid analogues for neuroprotection” (Emory University, priority 2008, dated 2020).
≈ marks a conversion by molar mass, not a printed value. Where a name gives a salt, the structure may show the parent alone.

Key:
Primary cortical cells = test: MTT assay of glutamate toxicity in primary cortical cells; type: cell-based; conditions: for reduction in cell death at 5 μM: 5 μM compound, glutamate 0.5 μM 24 h; for reduction in cell death best concentration: 24 h pre-treatment, then glutamate 0.5 μM 24 h, at the best concentration; for best concentration (for reduction in cell death): tested 0.1-80 μM, glutamate 0.5 μM; for cell survival / reduction in cell death (in words): glutamate toxicity, cortical neurons
Method: Primary cortical cells were seeded in multi-well plates and cultured for 8 days. […] Cells were next exposed to glutamate (0.5 μM) for the following 24 h. Cytotoxicity was assessed by the MTT [3-(4,5-dimethylthiazol-2-yl)-2,5-diphenyltetrazolium bromide] assay, which is based on the ability of a mitochondrial dehydrogenase enzyme from viable cells to cleave the tetrazolium rings of the pale yellow MTT. This reaction forms dark blue formazan crystals which are largely impermeable to cell membranes, thus resulting in their accumulation within healthy cells. Solubilization of the cells results in the liberation of the crystals, which are then also solubilized. The number of surviving cells is directly proportional to the level of the formazan product created.

cerebral edema = cerebral edema assay in whole animal model of TBI (cortical contusion); type: in vivo, rat; conditions: for efficacy in the cerebral edema assay (edema reduction) relative to PROG or group / mean % difference edema (injured vs non-injured tissue): male rats, cortical contusion; for efficacy in the cerebral edema assay (edema reduction) relative to PROG or group: two 8 mg/kg doses at 1 h and 6 h; for mean % difference edema (injured vs non-injured tissue): two 8 mg/kg doses at 1 h and 6 h post-surgery, brain tissue 24 hours post brain injury; for edema compared to subjects treated with vehicle: rat brain tissue 24 hours post brain injury
Method: Anesthetized male rats were first subjected to cortical contusion and were then given two 8 mg/kg doses of the test compound, the first at 1 h post-surgery and the second at 6 h. The animals were then sacrificed and tissue samples were taken from both injured and non-injured sections of the brain. Wet and dry weights were collected for each sample and cerebral edema (% water content) was determined as the difference in wet and dry weights divided by the wet weight. A “% mean difference” value could then be calculated based on the relative edema difference between injured and non-injured tissue samples for a given animal. […] The “vehicle” group were subjected to cortical injury but received only the drug carrier (22.5% 2-hydroxypropyl-β-cyclodextrine in water). All experimental treatments given by injection were made in stock solutions using 2-Hydroxypropyl-b-cyclodextrin (HBC; 45% w/v solution in H2O) as the solvent. These experimental solutions were then diluted 1:1 with sterile water for a final concentration of HBC of 22.5%.

physchem = test: physchem
Method: Several compounds were screened for solubility (FIG. 2). Solubility testing was done in phosphate buffered saline, which is considered to be a good model system for physiological conditions. Compounds were added in small portions at room temperature with stirring until a visible endpoint of saturation was reached.

[1] = pharmacokinetic analysis in non-injury whole animal rat study (serum levels); conditions: IV 10 mg/kg, serum over 12 h
Method: Select compounds were submitted for pharmacokinetic analysis in a non-injury whole animal rat study.
The compounds were intravenously (IV) dosed at 10 mg/kg and serum samples were taken at several time points over the course of 12 h. Serum concentration levels were determined for the analogues, as well as for their respective parent compound.

[2] = PROG IP at 4 mg/kg, male rats; cited from earlier work
[3] = cited from earlier work
[4] = tested on: PR-mediated gene transcription; test: PR-mediated gene transcription; type: cell-based
glutathione reductase = glutathione reductase activity following TBI; type: in vivo; conditions: relative to progesterone and allopregnanolone
[5] = aqueous buffer, thermodynamic from solid

CC(=O)[C@H]1CC[C@H]2[C@@H]3CC[C@H]4C[C@H](O)CC[C@]4(C)[C@H]3CC[C@]12C [ALLO, allopregnanolone, reference compound]
reduction in cell death at 5 μM (Primary cortical cells): −3%
reduction in cell death best concentration (Primary cortical cells): 40%
best concentration (for reduction in cell death) (Primary cortical cells): 80 µM

CC(=O)[C@H]1CCC2C3CCC4=C[C@@H](OC(=O)[C@@H](N)C(C)C)CC[C@]4(C)C3CC[C@@]21C (stereo partly drawn) [Compound P1-31, 3β-L-Valine-progesterone-HC]
efficacy in the cerebral edema assay (edema reduction) relative to PROG or group (cerebral edema): equivalent efficacy to progesterone
mean % difference edema (injured vs non-injured tissue) (cerebral edema): 2.2%
edema compared to subjects treated with vehicle (cerebral edema): decrease in edema
solubility (physchem; [5]): 3850 µg/mL (≈ 9.26 mM)
in vivo stability of amino acid side chain / conversion to parent compound [1]: cleaved almost immediately

CC(=O)[C@H]1CC[C@H]2[C@@H]3CCC4=C[C@@H](OC(=O)[C@@H]5CCCN5)CC[C@]4(C)[C@H]3CC[C@]12C [Compound P1-33, 3β-L-Proline-progesterone-HCl]
in vivo stability of amino acid side chain / conversion to parent compound [1]: cleaved almost immediately

CC(C)[C@H](N)C(=O)O[C@@H](C)[C@H]1CCC2C3CCC4=CC(=O)CC[C@]4(C)C3CC[C@@]21C (stereo partly drawn) [Compound P1-57, 20-S-L-Valine-progesterone HCl Salt]
reduction in cell death at 5 μM (Primary cortical cells): 23%
reduction in cell death best concentration (Primary cortical cells): 30%
cell survival / reduction in cell death (in words) (Primary cortical cells): significant reductions in cell death
best concentration (for reduction in cell death) (Primary cortical cells): 10 µM

CC(=O)[C@H]1CCC2C3CCC4=C/C(=N/OC(=O)[C@@H](N)Cc5c[nH]c6ccccc56)CC[C@]4(C)C3CC[C@@]21C (stereo partly drawn) [Compound P1-79, O-L-Tryptophan-C3-oxime-progesterone HCl Salt]
mean % difference edema (injured vs non-injured tissue) (cerebral edema): 1.9%
edema compared to subjects treated with vehicle (cerebral edema): decrease in edema

CC(=O)[C@H]1CCC2C3CC[C@H]4C[C@H](OC(=O)[C@@H](N)C(C)C)CC[C@]4(C)C3CC[C@@]21C (stereo partly drawn) [Compound P1-131, 3α-L-Valine-5α-pregnan-20-one HCl Salt]
efficacy in the cerebral edema assay (edema reduction) relative to PROG or group (cerebral edema): greatest edema reduction among the ALLO isomer group
in vivo stability of amino acid side chain / conversion to parent compound [1]: stable for a prolonged period of time and only gradually converted to its parent, ALLO

CC(=O)[C@H]1CCC2C3CC[C@@H]4C[C@H](OC(=O)[C@@H](N)C(C)C)CC[C@]4(C)C3CC[C@@]21C (stereo partly drawn) [Compound P1-133, 3α-L-Valine-5-pregnane-20-one HCl Salt]
solubility (physchem; [5]): 330 µg/mL

CC(=O)[C@H]1CC[C@H]2[C@@H]3CCC4=C/C(=N/OC(=O)[C@@H](N)C(C)C)CC[C@]4(C)[C@H]3CC[C@]12C [Compound P1-185, 3-Valine-E-oxime-progesterone HCl]
efficacy in the cerebral edema assay (edema reduction) relative to PROG or group (cerebral edema): equivalent efficacy to progesterone
solubility (physchem; [5]): 13000 µg/mL
reduction in cell death at 5 μM (Primary cortical cells): 27%
reduction in cell death best concentration (Primary cortical cells): 27%
cell survival / reduction in cell death (in words) (Primary cortical cells): highest levels of cell survival among the compounds screened
best concentration (for reduction in cell death) (Primary cortical cells): 5 µM

CC(=O)[C@H]1CC[C@H]2[C@@H]3CCC4=C/C(=N\OC(=O)[C@@H](N)C(C)C)CC[C@]4(C)[C@H]3CC[C@]12C [Compound P1-186, 3-Valine-Z-oxime-progesterone HCl]
efficacy in the cerebral edema assay (edema reduction) relative to PROG or group (cerebral edema): average reduction in edema levels almost twice that of PROG
solubility (physchem; phosphate buffered saline, room temperature, visible endpoint of saturation): 15200 µg/mL
in vivo stability of amino acid side chain / conversion to parent compound [1]: readily cleaved to give primarily the parent oxime P2-02
reduction in cell death at 5 μM (Primary cortical cells): 34%
reduction in cell death best concentration (Primary cortical cells): 34%
cell survival / reduction in cell death (in words) (Primary cortical cells): highest levels of cell survival among the compounds screened
best concentration (for reduction in cell death) (Primary cortical cells): 5 µM

CC(=O)[C@H]1CCC2C3CCC4=CC(=O)CC[C@]4(C)C3CC[C@@]21C (some centres unmarked) [PROG, progesterone, reference compound]
mean % difference edema (injured vs non-injured tissue) (cerebral edema): 2.0%
edema compared to subjects treated with vehicle (cerebral edema): decrease in edema
reduction in cell death at 5 μM (Primary cortical cells): 4%
reduction in cell death best concentration (Primary cortical cells): 42%
best concentration (for reduction in cell death) (Primary cortical cells): 20 µM
maximum serum concentration [2]: 28 ng/mL
reduction of mortality ([3]; 100 moderate to severe TBI patients, 3 days intravenous treatment): over 60%
functional outcomes ([3]; 30 days post-injury): significantly improved functional outcomes

CC(=O)[C@@H]1CCC2C3CCC4=CC(=O)CC[C@@]4(C)C3CC[C@]21C (stereo partly drawn) [ent-PROG, ent-Progesterone]
activation of PR-mediated gene transcription [4]: does not activate
glutathione reductase activity (glutathione reductase): significantly increased glutathione reductase activity
